From publication PMC9385704, “A tubulin binding molecule drives differentiation of acute myeloid leukemia cells” (iScience, 2022)

Biological target: tubulin beta chain (TUBB) (Homo sapiens, UniProt P07437)
Experiment: competition with photoaffinity probe […] in HL-60 cells; pull-down LC-MS/MS and anti-TUBB immunoblot
Type: cell-based

Sequence of tubulin beta chain (TUBB) (P07437 whole entry): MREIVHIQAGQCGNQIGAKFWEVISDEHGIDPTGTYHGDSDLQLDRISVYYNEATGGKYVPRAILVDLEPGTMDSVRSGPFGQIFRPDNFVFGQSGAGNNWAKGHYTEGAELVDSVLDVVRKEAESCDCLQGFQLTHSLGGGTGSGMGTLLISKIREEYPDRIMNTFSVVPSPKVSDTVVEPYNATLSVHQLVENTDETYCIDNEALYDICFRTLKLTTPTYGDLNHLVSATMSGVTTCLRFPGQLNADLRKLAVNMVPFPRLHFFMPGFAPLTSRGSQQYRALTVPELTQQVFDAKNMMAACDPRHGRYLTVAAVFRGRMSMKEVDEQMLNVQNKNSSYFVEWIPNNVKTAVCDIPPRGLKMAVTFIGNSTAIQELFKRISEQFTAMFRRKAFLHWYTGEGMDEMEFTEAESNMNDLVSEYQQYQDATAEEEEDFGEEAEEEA

SMILES: Cc1cc(C#N)ccc1-c1cc2c(cn1)ncn2-c1ccc2c(C)n[nH]c2c1 [compound 5, 3-Methyl-4-[1-(3-methyl-1H-indazol-6-yl)imidazo[4,5-c]pyridin-6-yl]benzonitrile]
- competition with photoaffinity probe 4 in HL-60 cells; pull-down LC-MS/MS and an: The results clearly show concentration-dependent competition with OXS0082555 and paclitaxel confirming tubulin beta chain as a direct target
